Source: paper PMC8467136, “Enabling Efficient Folding and High-Resolution Crystallographic Analysis of Bracelet Cyclotides” (Molecules, 2021)
Several values for one entry are separate records, joined by “and”; a condition that tells them apart may be missing. Identical values can stand only once. Bridge positions count the residues as written; N and C are the ends. Peptide text beside a SMILES is read from it.

Columns and labels:
[1] = test system: POPC/POPE (80:20) model membrane; test: Membrane binding to POPC/POPE lipid bilayers by surface plasmon resonance (SPR); conditions: BIAcore T200, L1 chip, POPC/POPE (80:20) bilayer, 10 mM HEPES, 150 mM NaCl; for P/L Max, peptide-to-lipid maximum binding value: pH 7.4, injection 180 s, dissociation 600 s, nonlinear regression; for Kd: pH 7.4, nonlinear regression, read-out: KD, peptide concentration required to achieve half-maximum binding at equilibrium
Text: Cyclotides are reported to exert their biological activities via membrane binding, particularly by selective binding to lipids containing phosphatidylethanolamine (PE) headgroups. Therefore, to evaluate the functional impact of the single mutation on bracelet cyclotides, the membrane-binding ability of these variants towards PE-containing lipid bilayers was examined using surface plasmon resonance (SPR). The model membrane comprising 80% 1-palmitoyloleoyl-phosphatidylcholine (POPC) and 20% 1-palmitoyloleoyl-phosphatidylethanolamine (POPE) was used. Binding affinity was evaluated by the peptide-to-lipid maximum binding value (P/L max, mol/mol) and the peptide concentration required to achieve half-maximum binding at equilibrium (KD value, μM). […] The negative effect of the [I11G] bracelet cyclotide mutation on lipid binding was expected, as the mutation reduces surface hydrophobicity, a previously reported determinant of membrane binding. The SPR dose-response curves and sensorgrams are shown in Figure S4 in Supplementary Material.
The binding affinity of bracelet cyclotides and their variants toward lipid bilayers was studied using SPR, as described previously. Two synthetic lipids, 1-palmitoyl-2-oleoyl-glycero-3-phosphocholine (POPC) and 1-palmitoyl-2-oleoyl-sn-glycero-3-phosphoethanolamine (POPE), were purchased from Avanti Polar Lipids (USA). Briefly, homogenous, small, unilamellar vesicles composed of POPC/POPE (80:20, mol/mol) were obtained by extruding the vesicle suspension through a 50-nm pore size polycarbonate membrane. L1 sensor chips and BIAcore T200 instrument were used (Cytiva, Marlborough, MA, USA). After the lipid was loaded and formed a bilayer membrane on the L1 chip, peptide solutions were injected over the lipid surface for 180 s and the dissociation was monitored for 600 s. Peptides were tested at concentrations ranging from 4–32 μM. Peptide-to-lipid molar ratio and KD values were calculated by nonlinear regression using GraphPad Prism software (version 8.3.1). Peptide solutions and lipid vesicles were prepared in HEPES buffer (10 mM HEPES, 150 mM NaCl, pH 7.4, filtered) for SPR studies.

[2] = test system: HeLa cells; test: Cytotoxicity against HeLa cells, resazurin assay; type: cell-based; conditions: 5000 cells/well, 24-h incubation with peptide, then resazurin 18 h, triplicate, mean ± SEM
Method: To further confirm the activity of these mutants, their cytotoxicity against HeLa cancer cells was evaluated along with wild-type bracelet cyclotides. […] Of the four [I11G] mutants, the hyen D analogue had the highest activity, possibly because hyen D has one more hydrophobic residue in loop 3 compared to the other three cyclotides, which may contribute to its higher lipid-binding capacity (P/L max = 0.37) and help offset the hydrophobicity loss caused by the [I11G] mutation.
The cytotoxicity of the peptides was evaluated using the resazurin assay, as described previously. HeLa cells were seeded at 5000 cells/well in a 96-well, flat-bottomed plate one day prior to the experiments. Peptide solutions were prepared in water and incubated with HeLa cells at concentrations ranging from 16 to 0.125 μM or 8 to 0.063 μM in triplicate (final concentrations). Water and 1% Triton X-100 (TX) were applied as negative and positive control, respectively. After 24-h incubation, 10 μL of resazurin (0.05%, w/v) was added and incubated with cells for another 18 h. The absorbance was measured at 540 and 620 nm on a microplate reader (Infinite M1000 Pro microplate reader, Tecan, Switzerland). The percentage of cell death was quantified by calculating the absorbance ratio, R (R = absorbance at 620/540), and applying the following equation: % Cell death = (Rsample − RH2O)/(RTX − RH2O) × 100. Data were analyzed with GraphPad Prism software (version 8.3.1) using Specific binding with Hill slope algorithm.

Structure (SMILES)	P/L Max, peptide-to-lipid maximum binding value [1]	Kd [1]	CC50 on HeLa (half maximum cytotoxic concentration) [2]
CC[C@H](C)[C@@H]1NC(=O)[C@H](C)NC(=O)[C@H](C)NC(=O)[C@H]([C@@H](C)O)NC(=O)[C@H](Cc2ccccc2)NC(=O)[C@@H]2CSSC[C@@H]3NC(=O)[C@H](C(C)C)NC(=O)[C@H](CCCCN)NC(=O)[C@H](CO)NC(=O)[C@H](CCCCN)NC(=O)[C@@H]4CSSC[C@H](NC(=O)[C@H](CO)NC(=O)[C@H](CCC(=O)O)NC(=O)CNC(=O)[C@H](CSSC[C@H](NC(=O)CNC1=O)C(=O)N[C@@H](CO)C(=O)N4)NC(=O)[C@@H]1CCCN1C(=O)[C@H](Cc1ccccc1)NC(=O)CNC(=O)[C@H](CC(N)=O)NC(=O)[C@H](CCCCN)NC(=O)[C@H](Cc1ccc(O)cc1)NC3=O)C(=O)N[C@@H](C(C)C)C(=O)N[C@@H](Cc1ccc(O)cc1)C(=O)N[C@@H]([C@@H](C)CC)C(=O)N1CCC[C@H]1C(=O)N2 [hyen D, reference compound] (cyclo(AAIGCSCKSKVCYKNGFPCGESCVYIPCFT); disulfide 5-19, 7-23, 12-28)	0.37 mol/mol and 0.37 ± 0.01 mol/mol	4.48 ± 0.17 µM	0.85 ± 0.03 µM
CC[C@H](C)[C@@H]1NC(=O)[C@H](C)NC(=O)[C@H](CO)NC(=O)[C@H](CO)NC(=O)[C@H]([C@@H](C)CC)NC(=O)[C@@H]2CSSC[C@@H]3NC(=O)[C@H](C(C)C)NC(=O)[C@H](CCCCN)NC(=O)[C@H](CO)NC(=O)[C@H](CCCCN)NC(=O)[C@@H]4CSSC[C@H](NC(=O)[C@H](CO)NC(=O)[C@H](CCC(=O)O)NC(=O)CNC(=O)[C@H](CSSC[C@H](NC(=O)CNC1=O)C(=O)N[C@@H](CO)C(=O)N4)NC(=O)[C@@H]1CCCN1C(=O)[C@H]([C@@H](C)CC)NC(=O)CNC(=O)[C@H](CC(N)=O)NC(=O)[C@H](CCCNC(=N)N)NC(=O)[C@H](Cc1ccc(O)cc1)NC3=O)C(=O)N[C@@H](C(C)C)C(=O)N[C@@H](Cc1c[nH]c3ccccc13)C(=O)N[C@@H](CC(C)C)C(=O)N1CCC[C@H]1C(=O)N2 [[I11L]cyO2] (cyclo(AIGCSCKSKVCYRNGIPCGESCVWLPCISS); disulfide 4-18, 6-22, 11-27)	0.31 ± 0.01 mol/mol	4.71 ± 0.17 µM	0.95 ± 0.08 µM
CC[C@H](C)[C@@H]1NC(=O)CNC(=O)[C@H](CC(N)=O)NC(=O)[C@H](CCCNC(=N)N)NC(=O)[C@H](Cc2ccc(O)cc2)NC(=O)[C@@H]2CSSC[C@@H]3NC(=O)[C@@H]4CCCN4C(=O)[C@H]([C@@H](C)CC)NC(=O)[C@H](Cc4c[nH]c5ccccc45)NC(=O)[C@H](C(C)C)NC(=O)[C@@H]4CSSC[C@H](NC(=O)[C@H](CO)NC(=O)[C@H](CSSC[C@H](NC(=O)[C@@H]5CCCN5C1=O)C(=O)NCC(=O)N[C@@H](CCC(=O)O)C(=O)N[C@@H](CO)C(=O)N4)NC(=O)CNC(=O)[C@H](C(C)C)NC(=O)[C@H](C)NC(=O)[C@H](CO)NC(=O)[C@H]([C@@H](C)O)NC(=O)[C@H](CC(C)C)NC3=O)C(=O)N[C@@H](CCCCN)C(=O)N[C@@H](CO)C(=O)N[C@@H](CCCCN)C(=O)N[C@@H](C(C)C)C(=O)N2 [cyO9, cycloviolacin O9, reference compound] (cyclo(AVGCSCKSKVCYRNGIPCGESCVWIPCLTS); disulfide 4-18, 6-22, 11-27)	0.30 ± 0.01 mol/mol	4.83 ± 0.17 µM	2.35 ± 0.13 µM
CC[C@H](C)[C@@H]1NC(=O)CNC(=O)[C@H](CC(N)=O)NC(=O)[C@H](CCCNC(=N)N)NC(=O)[C@H](Cc2ccc(O)cc2)NC(=O)[C@@H]2CSSC[C@@H]3NC(=O)[C@@H]4CCCN4C(=O)[C@H](CC(C)C)NC(=O)[C@H](Cc4c[nH]c5ccccc45)NC(=O)[C@H](C(C)C)NC(=O)[C@@H]4CSSC[C@H](NC(=O)[C@H](CO)NC(=O)[C@H](CSSC[C@H](NC(=O)[C@@H]5CCCN5C1=O)C(=O)NCC(=O)N[C@@H](CCC(=O)O)C(=O)N[C@@H](CO)C(=O)N4)NC(=O)CNC(=O)[C@H](C(C)C)NC(=O)[C@H](C)NC(=O)[C@H](CO)NC(=O)[C@H]([C@@H](C)O)NC(=O)[C@H](CC(C)C)NC3=O)C(=O)N[C@@H](CCCCN)C(=O)N[C@@H](CO)C(=O)N[C@@H](CCCCN)C(=O)N[C@@H](C(C)C)C(=O)N2 [[I11L]cyO9] (cyclo(AVGCSCKSKVCYRNGIPCGESCVWLPCLTS); disulfide 4-18, 6-22, 11-27)	0.31 ± 0.00 mol/mol	4.26 ± 0.06 µM	1.06 ± 0.03 µM
CC[C@H](C)[C@@H]1NC(=O)[C@@H]2CSSC[C@@H]3NC(=O)[C@H](C(C)C)NC(=O)[C@H](CCCCN)NC(=O)[C@H](CC(=O)O)NC(=O)[C@H]([C@@H](C)O)NC(=O)[C@@H]4CSSC[C@H](NC(=O)[C@H](CO)NC(=O)[C@H](CCC(=O)O)NC(=O)CNC(=O)[C@H](CSSC[C@H](NC(=O)CNC(=O)[C@H]([C@@H](C)CC)NC(=O)[C@H](C(C)C)NC(=O)CNC(=O)[C@H](CO)NC1=O)C(=O)N[C@@H](CO)C(=O)N4)NC(=O)[C@@H]1CCCN1C(=O)[C@H]([C@@H](C)O)NC(=O)CNC(=O)[C@H](CC(N)=O)NC(=O)[C@H](CC(C)C)NC(=O)[C@H](Cc1ccc(O)cc1)NC3=O)C(=O)N[C@@H](C(C)C)C(=O)N[C@@H](Cc1ccc(O)cc1)C(=O)NCC(=O)N1CCC[C@H]1C(=O)N2 [[I11G]kB5] (cyclo(CGESCVYGPCISGVIGCSCTDKVCYLNGTP); disulfide 1-17, 5-19, 10-24)	n.b.		>64 µM
CC[C@H](C)[C@@H]1NC(=O)[C@H](C)NC(=O)[C@H](CO)NC(=O)[C@H](CO)NC(=O)[C@H]([C@@H](C)CC)NC(=O)[C@@H]2CSSC[C@@H]3NC(=O)[C@H](C(C)C)NC(=O)[C@H](CCCCN)NC(=O)[C@H](CO)NC(=O)[C@H](CCCCN)NC(=O)[C@@H]4CSSC[C@H](NC(=O)[C@H](CO)NC(=O)[C@H](CCC(=O)O)NC(=O)CNC(=O)[C@H](CSSC[C@H](NC(=O)CNC1=O)C(=O)N[C@@H](CO)C(=O)N4)NC(=O)[C@@H]1CCCN1C(=O)[C@H]([C@@H](C)CC)NC(=O)CNC(=O)[C@H](CC(N)=O)NC(=O)[C@H](CCCNC(=N)N)NC(=O)[C@H](Cc1ccc(O)cc1)NC3=O)C(=O)N[C@@H](C(C)C)C(=O)N[C@@H](Cc1c[nH]c3ccccc13)C(=O)NCC(=O)N1CCC[C@H]1C(=O)N2 [[I11G]cyO2] (cyclo(AIGCSCKSKVCYRNGIPCGESCVWGPCISS); disulfide 4-18, 6-22, 11-27)	n.b. ^3		>64 µM
